The assay deals with HL-60 cells differentiated into neutrophil cells. Kind of assay: ROS production induced by PMA in HL-60 cells differentiated into neutrophil cells. Type of assay: cell-based. The following applies: Homo sapiens, 0.5 h; differentiated HL-60 cells, compounds 0.5 uM (0.5 mM in the source) for 30 minutes, 200 nM PMA, L-012 luminescence. From the text: In order to confirm the effect of the compounds of Synthetic examples on ROS production from fibroblasts and specific substrate cells, ROS production was induced by stimulation of PMA (phorbol 12-myristate 13-acetate), TGF-β1, palmitate or high concentration-glucose, or the like, in HL-60 cells differentiated into neutrophil cells by DMSO treatment, NHLF (normal human lung fibroblast, Lonza), LX-2 (human hepatic stellate cells, Sigma), ARPE19 (human retinal pigment epithelial cell, ATCC), and KEL-FIB (Keloid fibroblast, ATCC) cells, and under this condition, the inhibitory effect of ROS production of the compounds of Synthetic Examples was observed.
HL-60 cells (human leukemia cells, ATCC) were suspended in a medium containing 1.25% DMSO (RPMI+10% FBS) and cultured under the condition of 5% CO2, 37° C. for 6 days, thereby inducing differentiation into neutrophil cells. […] Then, to each well comprising the cells and drug, 200 nM PMA was treated to induce ROS production, and such ROS production was measured by observing the luminescence level of each well using 100 μM L-012.

The molecule `CN(Cc1ccc(F)cc1)C1CCc2nn(-c3ccccn3)c(O)c2C1` (centres unmarked) [Compound 4, 5-[(4-Fluorobenzyl)methylamino]-2-(pyridin-2-yl)-4,5,6,7-tetrahydro-2H-indazol-3-ol] registered an inhibition at 0.5 µM of over 70%.

Consider `CN1CCN(c2cccc3nc(CN(C)C4CCc5nn(-c6ccccn6)c(O)c5C4)cn23)CC1` (centres unmarked) [Compound 37, 5-{Methyl[5-(4-methylpiperazin-1-yl)imidazo[1,2-a]pyridin-2-yl]methylamino}-2-(pyridin-2-yl)-4,5,6,7-tetrahydro-2H-indazol-3-ol], for which the inhibition at 0.5 µM was 30 to 50%.

In turn, `CN(C)C/C=C/C(=O)N(C)C1CCc2nn(-c3ccccn3)c(O)c2C1` (centres unmarked) [Compound 99, (E)-4-(dimethylamino)-N-(3-hydroxy-2-(pyridin-2-yl)-4,5,6,7-tetrahydro-2H-indazol-5-yl)-N-methylbut-2-enamide] registered an inhibition at 0.5 µM of 50 to 70%.

`COc1ccc(CN(C)C2CCc3nn(-c4ccccn4)c(O)c3C2)cc1` (centres unmarked) [Compound 28, 5-[(4-Methoxybenzyl)methylamino]-2-(pyridin-2-yl)-4,5,6,7-tetrahydro-2H-indazol-3-ol]: the inhibition at 0.5 µM lay in the range of 50 to 70%.

`CN1CCN(C2CCc3nn(-c4ncccn4)c(O)c3C2)CC1` (centres unmarked) [Compound 108, 5-(4-Methylpiperazin-1-yl)-2-(pyrimidin-2-yl)-4,5,6,7-tetrahydro-2H-indazol-3-ol] showed an inhibition at 0.5 µM of over 70%.

Take `CN1CCN(C2CCc3nn(-c4nccc5sccc45)c(O)c3C2)CC1` (centres unmarked) [Compound 85, 5-(4-Methylpiperazin-1-yl)-2-(thieno[3,2-c]pyridin-4-yl)-4,5,6,7-tetrahydro-2H-indazol-3-ol]: the inhibition at 0.5 µM was 50 to 70%.

For the molecule `CS(=O)(=O)c1ccc(N2CCN(C3CCc4nn(-c5ccccn5)c(O)c4C3)CC2)cc1` (centres unmarked) [Compound 131, 5-(4-(4-(Methylsulfonyl)phenyl)piperazin-1-yl)-2-(pyridin-2-yl)-4,5,6,7-tetrahydro-2H-indazol-3-ol], the inhibition at 0.5 µM was over 70%.

The molecule `CN(Cc1ccc(C#N)cc1)C1CCc2nn(-c3ccccn3)c(O)c2C1` (centres unmarked) [Compound 3, 4-{[(3-Hydroxy-2-(pyridin-2-yl)-4,5,6,7-tetrahydro-2H-indazol-5-yl)methylamino]methyl}benzonitrile] yielded an inhibition at 0.5 µM of over 70%.

`CCCN(Cc1ccccc1)C1CCc2nn(-c3ccccn3)c(O)c2C1` (centres unmarked) [Compound 21, 5-(Benzylpropylamino)-2-(pyridin-2-yl)-4,5,6,7-tetrahydro-2H-indazol-3-ol] had an inhibition at 0.5 µM of 30 to 50%.

`COc1ccc(CNC2CCc3nn(-c4ccccn4)c(O)c3C2)cc1` (centres unmarked) [Compound 88, 5-((4-Methoxybenzyl)amino)-2-(pyridin-2-yl)-4,5,6,7-tetrahydro-2H-indazol-3-ol] gave an inhibition at 0.5 µM of 50 to 70%.

`Cc1cccc(CN(C)C2CCc3nn(-c4ccccn4)c(O)c3C2)c1` (centres unmarked) [Compound 9, 5-[Methyl-(3-methylbenzyl)amino]-2-(pyridin-2-yl)-4,5,6,7-tetrahydro-2H-indazol-3-ol] gave an inhibition at 0.5 µM of 50 to 70%.

`CN(Cc1cccc(C#N)c1)C1CCc2nn(-c3ccccn3)c(O)c2C1` (centres unmarked) [Compound 25, 3-{[(3-Hydroxy-2-(pyridin-2-yl)-4,5,6,7-tetrahydro-2H-indazol-5-yl)methylamino]methyl}benzonitrile]: the inhibition at 0.5 µM lay within 30 to 50%.

`Oc1c2c(nn1-c1ccccn1)CCC(N1CCN(CC3CCCCC3)CC1)C2` (centres unmarked) [Compound 106, 5-(4-(Cyclohexylmethyl)piperazin-1-yl)-2-(pyridin-2-yl)-4,5,6,7-tetrahydro-2H-indazol-3-ol] showed an inhibition at 0.5 µM of over 70%.

Molecule `Oc1c2c(nn1-c1ccccn1)CCC(N1CCN(Cc3ccccn3)CC1)C2` (centres unmarked) [Compound 87, 2-(Pyridin-2-yl)-5-(4-(pyridin-2-ylmethyl)piperazin-1-yl)-4,5,6,7-tetrahydro-2H-indazol-3-ol] displayed an inhibition at 0.5 µM of 50 to 70%.

Take `Cc1ccc(CN(C)C2CCc3nn(-c4ccccn4)c(O)c3C2)cc1` (centres unmarked) [Compound 24, 5-[Methyl-(4-methylbenzyl)amino]-2-(pyridin-2-yl)-4,5,6,7-tetrahydro-2H-indazol-3-ol]: the inhibition at 0.5 µM was in the range of 30 to 50%.

`CN1CCN(C2CCc3nn(-c4ccc(C#N)cc4)c(O)c3C2)CC1` (centres unmarked) [Compound 103, 4-(3-Hydroxy-5-(4-methylpiperazin-1-yl)-4,5,6,7-tetrahydro-2H-indazol-2-yl)benzonitrile] had an inhibition at 0.5 µM of over 70%.

In turn, `CN(C)C/C=C/C(=O)N1CCN(C2CCc3nn(-c4ccccn4)c(O)c3C2)CC1` (centres unmarked) [Compound 98, (E)-4-(dimethylamino)-1-(4-(3-hydroxy-2-(pyridin-2-yl)-4,5,6,7-tetrahydro-2H-indazol-5-yl)piperazin-1-yl)but-2-en-1-one] displayed an inhibition at 0.5 µM of 50 to 70%.

`CC#CC(=O)N1CCN(C2CCc3nn(-c4ccccn4)c(O)c3C2)CC1` (centres unmarked) [Compound 89] registered an inhibition at 0.5 µM of over 70%.

For `Oc1c2c(nn1-c1ccccn1)CCC(NCCc1ccccc1)C2` (centres unmarked) [Compound 93, 5-(Penethylamino)-2-(pyridin-2-yl)-4,5,6,7-tetrahydro-2H-indazol-3-ol], the inhibition at 0.5 µM was in the range of 30 to 50%.

On to `CN1CCN(c2cc(CN(C)C3CCc4nn(-c5ccccn5)c(O)c4C3)ncn2)CC1` (centres unmarked) [Compound 34, 5-{methyl-[6-(4-methyl-piperazin-1-yl)-pyrimidin-4-ylmethyl]-amino}-2-pyridin-2-yl-4,5,6,7-tetrahydro-2H-indazol-3-ol], for which the inhibition at 0.5 µM lay in the range of 30 to 50%.

In turn, `Oc1c2c(nn1-c1ccccn1)CCC(N1CCc3ccccc3C1)C2` (centres unmarked) [Compound 18, 5-(3,4-Dihydro-1H-isoquinolin-2-yl)-2-(pyridin-2-yl)-4,5,6,7-tetrahydro-2H-indazol-3-ol] displayed an inhibition at 0.5 µM of over 70%.

For the molecule `CCN1CCN(C2CCc3nn(-c4ccccn4)c(O)c3C2)CC1` (centres unmarked) [Compound 91, 5-(4-Ethylpiperazin-1-yl)-2-(pyridin-2-yl)-4,5,6,7-tetrahydro-2H-indazol-3-ol], the inhibition at 0.5 µM lay in the range of 50 to 70%.

`CN(Cc1ccc(Cl)cc1)C1CCc2nn(-c3ccccn3)c(O)c2C1` (centres unmarked) [Compound 19, 5-[(4-Chlorobenzyl)methylamino]-2-(pyridin-2-yl)-4,5,6,7-tetrahydro-2H-indazol-3-ol] yielded an inhibition at 0.5 µM of over 70%.

On to `CN1CCN(C2CCc3nn(-c4ncccc4F)c(O)c3C2)CC1` (centres unmarked) [Compound 86, 2-(3-Fluoropyridin-2-yl)-5-(4-methylpiperazin-1-yl)-4,5,6,7-tetrahydro-2H-indazol-3-ol], for which the inhibition at 0.5 µM is 30 to 50%.

For the molecule `C=CC(=O)N1CCN(C2CCc3nn(-c4ccccn4)c(O)c3C2)CC1` (centres unmarked) [Compound 97, 1-(4-(3-Hydroxy-2-(pyridin-2-yl)-4,5,6,7-tetrahydro-2H-indazol-5-yl)piperazin-1-yl)prop-2-en-1-one], the inhibition at 0.5 µM was in the range of 50 to 70%.

For the molecule `Cc1ccc(N2CCN(C3CCc4nn(-c5ccccn5)c(O)c4C3)CC2)cc1` (centres unmarked) [Compound 126, 2-(Pyridin-2-yl)-5-(4-(p-tolyl)piperazin-1-yl)-4,5,6,7-tetrahydro-2H-indazol-3-ol], the inhibition at 0.5 µM was over 70%.

Turning to `Oc1c2c(nn1-c1ccccn1)CCC(N1CCCC1)C2` (centres unmarked) [Compound 96, 2-(Pyridin-2-yl)-5-(pyrrolidin-1-yl)-4,5,6,7-tetrahydro-2H-indazol-3-ol], the inhibition at 0.5 µM fell in the range of 50 to 70%.

`Oc1c2c(nn1-c1ccccn1)CCC(Nc1ccccc1)C2` (centres unmarked) [Compound 92, 5-(Phenylamino)-2-(pyridin-2-yl)-4,5,6,7-tetrahydro-2H-indazol-3-ol] yielded an inhibition at 0.5 µM of 30 to 50%.

`CN(Cc1cccc(Cl)c1)C1CCc2nn(-c3ccccn3)c(O)c2C1` (centres unmarked) [Compound 7, 5-[(3-Chlorobenzyl)methylamino]-2-(pyridin-2-yl)-4,5,6,7-tetrahydro-2H-indazol-3-ol] registered an inhibition at 0.5 µM of over 70%.

On to `CCCN1CCN(C2CCc3nn(-c4ccccn4)c(O)c3C2)CC1` (centres unmarked) [Compound 100, 5-(4-Propylpiperazin-1-yl)-2-(pyridin-2-yl)-4,5,6,7-tetrahydro-2H-indazol-3-ol], for which the inhibition at 0.5 µM fell in the range of 50 to 70%.

`CN1CCN(C2CCc3nn(-c4ccc(C(F)(F)F)cc4)c(O)c3C2)CC1` (centres unmarked) [Compound 95, 5-(4-Methylpiperazin-1-yl)-2-(4-(trifluoromethyl)phenyl)-4,5,6,7-tetrahydro-2H-indazol-3-ol]: the inhibition at 0.5 µM is 50 to 70%.

In the case of `CN(Cc1cccc(F)c1)C1CCc2nn(-c3ccccn3)c(O)c2C1` (centres unmarked) [Compound 27, 5-[(3-Fluorobenzyl)methylamino]-2-(pyridin-2-yl)-4,5,6,7-tetrahydro-2H-indazol-3-ol], the inhibition at 0.5 µM was in the range of 30 to 50%.

In turn, `Cc1ccccc1CN(C)C1CCc2nn(-c3ccccn3)c(O)c2C1` (centres unmarked) [Compound 29, 5-[Methyl-(2-methylbenzyl)amino]-2-(pyridin-2-yl)-4,5,6,7-tetrahydro-2H-indazol-3-ol] had an inhibition at 0.5 µM of 30 to 50%.

The molecule `CN(Cc1ccccc1C(F)(F)F)C1CCc2nn(-c3ccccn3)c(O)c2C1` (centres unmarked) [Compound 11, 5-[Methyl-(2-trifluoromethylbenzyl)-amino]-2-pyridin-2-yl-4,5,6,7-tetrahydro-2H-indazol-3-ol] yielded an inhibition at 0.5 µM of under 30%.

Molecule `CN(Cc1ccc(C(F)(F)F)cc1)C1CCc2nn(-c3ccccn3)c(O)c2C1` (centres unmarked) [Compound 8, 5-[Methyl-(4-trifluoromethylbenzyl)amino]-2-pyridin-2-yl-4,5,6,7-tetrahydro-2H-indazol-3-ol] displayed an inhibition at 0.5 µM of under 30%.

As usually defined, the inhibition is the share of the control response that was lost under treatment. Low values mean a response near the control, high ones a response far below the control.

The values above are taken from US11999718B2, “Pyrazole derivatives” (Aptabio Therapeutics Inc., priority 2021, dated 2024).
